From US9856290B2, “Glycopeptide compositions and uses thereof” (SUSSEX RESEARCH LABORATORIES INC., priority 2013, dated 2018)
Marks after values point to notes of the source that are not given here. Primed or numbered codes have the meaning given here. Where no end group is shown, it is not given here. The star is where a group is joined. Ac7‑β‑Cel = heptaacetyl-β-cellobioside (peracetylated β-cellobiose), CC(=O)OC[C@H]1O[C@@H](*)[C@H](OC(C)=O)[C@@H](OC(C)=O)[C@@H]1O[C@@H]1O[C@H](COC(C)=O)[C@@H](OC(C)=O)[C@H](OC(C)=O)[C@H]1OC(C)=O; Ac7‑β‑Lac = heptaacetyl-β-lactoside (peracetylated β-lactose), CC(=O)OC[C@H]1O[C@@H](O[C@H]2[C@H](OC(C)=O)[C@@H](OC(C)=O)[C@H](*)O[C@@H]2COC(C)=O)[C@H](OC(C)=O)[C@@H](OC(C)=O)[C@H]1OC(C)=O; Ac4‑β‑Gal = tetraacetyl-β-galactoside (peracetylated β-galactose), CC(=O)OC[C@H]1O[C@@H](*)[C@H](OC(C)=O)[C@@H](OC(C)=O)[C@H]1OC(C)=O; Ac3‑α‑Rha = triacetyl-α-rhamnoside (peracetylated α-rhamnose), CC(=O)O[C@@H]1[C@@H](OC(C)=O)[C@H](C)O[C@@H](*)[C@@H]1OC(C)=O; Ac4‑β‑Glc = per-acetylated β-glucose (tetraacetyl), CC(=O)OC[C@H]1O[C@@H](*)[C@H](OC(C)=O)[C@@H](OC(C)=O)[C@@H]1OC(C)=O; Ac3‑β‑Fuc = triacetyl-β-fucoside (peracetylated β-fucose), CC(=O)O[C@@H]1[C@H](OC(C)=O)[C@H](C)O[C@H](*)[C@H]1OC(C)=O; Ac3‑β‑Xyl = triacetyl-β-xyloside (peracetylated β-xylose), CC(=O)O[C@@H]1[C@@H](OC(C)=O)[C@H](OC(C)=O)CO[C@H]1*; Ac4‑β‑Glc″ = peracetylated beta-glucose, CC(=O)OC[C@H]1O[C@@H](*)[C@H](OC(C)=O)[C@@H](OC(C)=O)[C@@H]1OC(C)=O; β‑maltose = OC[C@H]1O[C@H](O[C@H]2[C@H](O)[C@@H](O)[C@H](*)O[C@@H]2CO)[C@H](O)[C@@H](O)[C@@H]1O; βGlc = OC[C@H]1O[C@@H](*)[C@H](O)[C@@H](O)[C@@H]1O; Palmitoyl = CCCCCCCCCCCCCCCC(=O)*

Legend:
[1] = test system: Human Dermal Fibroblasts (KMST-6); assay: ECM ELISA assay: elastin secretion by human dermal fibroblasts; format: cell-based; conditions: 5 μM, % compared to control set at 100%, normalized to total protein; for Elastin Secretion at 48 hours: KMST-6, 48 hours; for Elastin Secretion at 72 hours: KMST-6, 72 hours
Experimental: (§1) KMST-6 cells (Japan Health Sciences Foundation, JCRB0433) were seeded at 7,000 cells/ml in 12-well tissue culture treated plates (Falcon, 353043) in complete media. The complete media consisted of the following: MEM/EBSS (Hyclone, SH30024.01), 10% Heat-Inactivated FBS (Gibco, 10082-147), 1% L-Glutamine (Hyclone, SH30031.01), 1% Nucleosides (800 mg/L Adenosine, 850 mg/L Guanidine, 730 mg/L Cytidine, 730 mg/L Uridine and 240 mg/L Thymidine), 1% Penicillin/Streptomycin (HyClone, SV30010), 1% Sodium Pyruvate (HyClone, SH30239.01), 1% Non-Essential Amino Acids (Hyclone, SH30238.01) and 0.04% Gentamicin (Gibco, 15710-064). Cells were grown for 2 days prior to treatments. The media was aspirated and cells were washed with 1×PBS (Fisher, SH30256.01) and treated with 5 μM (1 mL/well) glycopeptides, reference (Pal-KTTKS, CPC Scientific, 822197), and control (DMSO, Fisher, BP231-100) in serum-free media supplemented with 50 μg/mL Sodium Ascorbate (Sigma, A4034) and 80 μg/mL β-Aminopropionate Fumarate (Sigma, A3134). The treated cells were incubated at 37° C. and 5% CO2 for 48 and 72 hours. At each timepoint, media from each treatment was collected and centrifuged at 1500 RPM for 15 minutes at 4° C. The supernatant was collected and stored at −80° C. for extracellular matrix protein quantification. The following kits were used for quantification of ECM proteins: Fibronectin (Takara, MK115) and Elastin (Uscn Life Science Inc., E91337Hu). The cells were harvest and lysed with 250 μL Lysis Buffer (20 mM Tris-HCl (Sigma, T1503), 137 mM NaCl (Sigma, S9888), 2 mM EDTA (Fisher, BP118), 1% IGEPAL (Sigma, 18896), 10% Glycerol (Sigma, G5516), 100 μM PMSF (Fisher, 36978) and 10 μg/mL Leupeptin (Sigma-Aldrich, L2884). They were placed on a container of ice on a plate shaker (Lab-Line Instruments, 3595) for 30 minutes. The lysate was centrifuged at 10,000 g for 5 minutes at 4° C. The supernatant was collected and used for protein quantification (BioRad, 500-0112).
(§2) To determine effects on extracellular matrix protein secretion, 5 μM of individual glycopeptides were incubated with Human Dermal Fibroblasts (KMST-6). The control sample cells were treated with DMSO (Fisher, BP231-100). As described previously, supernatant was collected from treated cells (at two time-points, 48 and 72 hours of treatment) and stored at −80° C. for subsequent extracellular matrix protein quantification using ELISA kits (Fibronectin (Takara, MK115), Elastin (Uscn Life Science Inc., E91337Hu). For the determination of total cellular protein, treated cells were harvested and lysed. The lysate was centrifuged, the supernatant was collected and then used for protein quantification (BioRad, 500-0112). ELISA plates were read on the plate reader (Molecular Devices) at absorbance of 450 nm and SoftMax Pro software was used to compute the μg/ml values of protein of interest derived from the generated 4-parameter fit standard curve. Each μg/ml of protein secreted was normalized to total protein per well. The data was analysed by averaging out normalized values from at least three independent experiments and presenting them as a % compared to control treatment set at 100% (Table 2-5). Statistical significance was performed using One-way ANOVA (p<0.05) where “*” represents statistical significance when compared to control and “#” represents statistical significance when compared to reference. […]

[2] = test system: Human Dermal Fibroblasts (KMST-6); assay: ECM ELISA assay: fibronectin secretion by human dermal fibroblasts; format: cell-based; conditions: 5 μM, % compared to control set at 100%, normalized to total protein; for Fibronectin secretion at 48 hours: KMST-6, 48 hours; for Fibronectin Secretion at 72 hours: KMST-6, 72 hours
Experimental: as §1, §2

Row | Substance | Elastin Secretion at 48 hours [1] [%] | Elastin Secretion at 72 hours [1] | Fibronectin secretion at 48 hours [2] [%] | Fibronectin Secretion at 72 hours [2] [%]
1 | Dal-KT(β-Mal)TKS-OH (KT(β‑maltose)TKS-OH; not fully specified (N-terminus); printed as Dal-KT(β-Mal)TKS-OH; listed as Homo sapiens) [GP003-10] | 149.5 | 127.6% | 144.5 | 94.70
2 | Pal-KN(Ac4-β-Glc)TKS-OH (Palmitoyl-KN(Ac4‑β‑Glc″)TKS-OH; listed as Homo sapiens) [GP003-5] | 211.4 | 194.2% | 146.0 | 136.0
3 | Pal-KN(β-Glc)TKS-OH (Palmitoyl-KN(βGlc)TKS-OH; listed as Homo sapiens) [GP003-6] | 170.3 | 128.8% | 140.2 | 119.7
4 | Pal-KT(Ac3-α-Rha)TKS-OH (Palmitoyl-KT(Ac3‑α‑Rha)TKS-OH; SMILES CCCCCCCCCCCCCCCC(=O)N[C@@H](CCCCN)C(=O)N[C@H](C(=O)N[C@H](C(=O)N[C@@H](CCCCN)C(=O)N[C@@H](CO)C(=O)O)[C@@H](C)O)[C@@H](C)O[C@@H]1O[C@@H](C)[C@H](OC(C)=O)[C@@H](OC(C)=O)[C@H]1OC(C)=O; listed as Homo sapiens) [GP004-7] | 241.0 | 193.0% |  | 
5 | Pal-KT(Ac4-β-Gal)TKS-OH (Palmitoyl-KT(Ac4‑β‑Gal)TKS-OH; SMILES CCCCCCCCCCCCCCCC(=O)N[C@@H](CCCCN)C(=O)N[C@H](C(=O)N[C@H](C(=O)N[C@@H](CCCCN)C(=O)N[C@@H](CO)C(=O)O)[C@@H](C)O)[C@@H](C)O[C@@H]1O[C@H](COC(C)=O)[C@H](OC(C)=O)[C@H](OC(C)=O)[C@H]1OC(C)=O; listed as Homo sapiens) [GP004-1] | 215.3 | 202.0% |  | 
6 | Pal-KT(Ac7-β-Cel)TKS-OH (Palmitoyl-KT(Ac7‑β‑Cel)TKS-OH; SMILES CCCCCCCCCCCCCCCC(=O)N[C@@H](CCCCN)C(=O)N[C@H](C(=O)N[C@H](C(=O)N[C@@H](CCCCN)C(=O)N[C@@H](CO)C(=O)O)[C@@H](C)O)[C@@H](C)O[C@@H]1O[C@H](COC(C)=O)[C@@H](O[C@@H]2O[C@H](COC(C)=O)[C@@H](OC(C)=O)[C@H](OC(C)=O)[C@H]2OC(C)=O)[C@H](OC(C)=O)[C@H]1OC(C)=O; listed as Homo sapiens) [GP004-9] | 199.3 | 254.6* % |  | 
7 | Pal-KT(Ac7-β-Lac)TKS-OH (Palmitoyl-KT(Ac7‑β‑Lac)TKS-OH; SMILES CCCCCCCCCCCCCCCC(=O)N[C@@H](CCCCN)C(=O)N[C@H](C(=O)N[C@H](C(=O)N[C@@H](CCCCN)C(=O)N[C@@H](CO)C(=O)O)[C@@H](C)O)[C@@H](C)O[C@@H]1O[C@H](COC(C)=O)[C@@H](O[C@@H]2O[C@H](COC(C)=O)[C@H](OC(C)=O)[C@H](OC(C)=O)[C@H]2OC(C)=O)[C@H](OC(C)=O)[C@H]1OC(C)=O; listed as Homo sapiens) [GP004-5] | 195.3 | 209.5% |  | 
8 | Pal-KTT(Ac4-β-Gal)KS-OH (Palmitoyl-KTT(Ac4‑β‑Gal)KS-OH; SMILES CCCCCCCCCCCCCCCC(=O)N[C@@H](CCCCN)C(=O)N[C@H](C(=O)N[C@H](C(=O)N[C@@H](CCCCN)C(=O)N[C@@H](CO)C(=O)O)[C@@H](C)O[C@@H]1O[C@H](COC(C)=O)[C@H](OC(C)=O)[C@H](OC(C)=O)[C@H]1OC(C)=O)[C@@H](C)O; listed as Homo sapiens) [GP004-2] | 186.5 | 138.3% |  | 
9 | Pal-KTT(Ac4-β-Glc)KS-OH (Palmitoyl-KTT(Ac4‑β‑Glc)KS-OH; SMILES CCCCCCCCCCCCCCCC(=O)N[C@@H](CCCCN)C(=O)N[C@H](C(=O)N[C@H](C(=O)N[C@@H](CCCCN)C(=O)N[C@@H](CO)C(=O)O)[C@@H](C)O[C@@H]1O[C@H](COC(C)=O)[C@@H](OC(C)=O)[C@H](OC(C)=O)[C@H]1OC(C)=O)[C@@H](C)O; listed as Homo sapiens) [GP001-7] |  |  | 101.3 | 109.4
10 | Pal-KTTKS(Ac3-α-Rha)-OH (Palmitoyl-KTTKS(Ac3‑α‑Rha)-OH; SMILES CCCCCCCCCCCCCCCC(=O)N[C@@H](CCCCN)C(=O)N[C@H](C(=O)N[C@H](C(=O)N[C@@H](CCCCN)C(=O)N[C@@H](CO[C@@H]1O[C@@H](C)[C@H](OC(C)=O)[C@@H](OC(C)=O)[C@H]1OC(C)=O)C(=O)O)[C@@H](C)O)[C@@H](C)O; listed as Homo sapiens) [GP004-8] | 166.8 | 169.3% |  | 
11 | Pal-KTTKS(Ac3-β-Fuc)-OH (Palmitoyl-KTTKS(Ac3‑β‑Fuc)-OH; SMILES CCCCCCCCCCCCCCCC(=O)N[C@@H](CCCCN)C(=O)N[C@H](C(=O)N[C@H](C(=O)N[C@@H](CCCCN)C(=O)N[C@@H](CO[C@H]1O[C@@H](C)[C@@H](OC(C)=O)[C@@H](OC(C)=O)[C@@H]1OC(C)=O)C(=O)O)[C@@H](C)O)[C@@H](C)O; listed as Homo sapiens) [GP004-12] | 151.4 | 191.8% |  | 
12 | Pal-KTTKS(Ac3-β-Xyl)-OH (Palmitoyl-KTTKS(Ac3‑β‑Xyl)-OH; SMILES CCCCCCCCCCCCCCCC(=O)N[C@@H](CCCCN)C(=O)N[C@H](C(=O)N[C@H](C(=O)N[C@@H](CCCCN)C(=O)N[C@@H](CO[C@@H]1OC[C@@H](OC(C)=O)[C@H](OC(C)=O)[C@H]1OC(C)=O)C(=O)O)[C@@H](C)O)[C@@H](C)O; listed as Homo sapiens) [GP004-11] | 178.8 | 121.3% |  | 
13 | Pal-KTTKS(Ac7-β-Cel)-OH (Palmitoyl-KTTKS(Ac7‑β‑Cel)-OH; SMILES CCCCCCCCCCCCCCCC(=O)N[C@@H](CCCCN)C(=O)N[C@H](C(=O)N[C@H](C(=O)N[C@@H](CCCCN)C(=O)N[C@@H](CO[C@@H]1O[C@H](COC(C)=O)[C@@H](O[C@@H]2O[C@H](COC(C)=O)[C@@H](OC(C)=O)[C@H](OC(C)=O)[C@H]2OC(C)=O)[C@H](OC(C)=O)[C@H]1OC(C)=O)C(=O)O)[C@@H](C)O)[C@@H](C)O; listed as Homo sapiens) [GP004-10] | 211.3 | 187.0% |  | 
14 | Pal-KTTKS(Ac7-β-Lac)-OH (Palmitoyl-KTTKS(Ac7‑β‑Lac)-OH; SMILES CCCCCCCCCCCCCCCC(=O)N[C@@H](CCCCN)C(=O)N[C@H](C(=O)N[C@H](C(=O)N[C@@H](CCCCN)C(=O)N[C@@H](CO[C@@H]1O[C@H](COC(C)=O)[C@@H](O[C@@H]2O[C@H](COC(C)=O)[C@H](OC(C)=O)[C@H](OC(C)=O)[C@H]2OC(C)=O)[C@H](OC(C)=O)[C@H]1OC(C)=O)C(=O)O)[C@@H](C)O)[C@@H](C)O; listed as Homo sapiens) [GP004-6] | 218.6 | 170.0% |  | 
